Patent US11180459B2, “Bacterial efflux pump inhibitors” (RUTGERS, THE STATE UNIVERSITY OF NEW JERSEY, priority 2017, dated 2021)
Where a name gives a salt, the structure may show the parent alone.

What follows are molecules tested on Pseudomonas aeruginosa ATCC 27853 (assay: Standard EPI assay: levofloxacin MIC with EPI). Conditions: levofloxacin as antibiotic; P. aeruginosa ATCC 27853; EPI at 12.5 (μg).
Type: cell-based
Experimental: (§1) MIC assays were conducted in accordance with Clinical and Laboratory Standards Institute (CLSI) guidelines for broth microdilution.
(§2) The EPI assay for the purposes of these studies represents a MIC assay in which the MIC of the antibiotic against the bacteria is tested in the presence of an experimental efflux pump inhibitor (EPI). The highest concentration of the EPI present in the assay typically is ½ of the intrinsic MIC of the compound. If the intrinsic MIC of the EPI is greater than 100 μg/mL, the EPI assay was tested with 50 μg/mL. Using serial dilutions of the EPI, its enhancement of antibiotic activity was then evaluated. The relative EPI activity was decided by comparing the MIC of the antibiotic in the presence of the EPI compound with the intrinsic MIC of the antibiotic alone. For the evaluation of the efficacy of an EPI against bacteria that were pre-exposed to an antibiotic, the inoculum of bacteria that used was developed from a bacterial culture isolated as a single colony following exposure at ½ the MIIC of the antibiotic (so as to induce efflux pump expression), was to be used in combination with the EPI.
(§3) In our standard EPI assay, the MIC of the test antibiotic is determined in the absence and presence of sub-inhibitory concentrations of the EPI. Initially, the sub-inhibitory concentration used was ½×MIC of the EPI. […] The MIC of levofloxacin against P. aeruginosa ATCC 27853 in the absence of EPI is 1 μg/mL. […] Similar methodology was employed to examine the synergy with Escherichia coli ATCC 25922 in the presence of varied concentrations of these EPIs using clarithromycin as the antibiotic.
NCCC[C@H](N)CNC(=O)c1nc2cc(-c3ccc(F)cc3)cc(-c3ccc(F)cc3)c2[nH]1 [Example 2, (S)—N-(2,5-diaminopentyl)-5,7-bis(4-fluorophenyl)-1H-benzo[d]imidazole-2-carboxamide Dihydrochloride] was tested, and the “Enhanced Activity in P. aeruginosa (fold enhancement of antibiotic activity / EPI concentration)” value was 1×/12.5.
In the case of N#Cc1cccc(-c2ccc3[nH]c(C(=O)NC[C@@H](N)CCCN)nc3c2)c1 [Example 7, (S)-5-(3-cyanophenyl)-N-(2,5-diaminopentyl)-1H-benzo[d]imidazole-2-carboxamide Dihydrochloride], the “Enhanced Activity in P. aeruginosa (fold enhancement of antibiotic activity / EPI concentration)” value is reported as 4×/12.5.

Each molecule was assayed on Escherichia coli ATCC 25922 (assay: Standard EPI assay: clarithromycin MIC with EPI). Conditions: clarithromycin as antibiotic; E. coli ATCC 25922; EPI at 6.25 (μg).
Type: cell-based
Experimental: as §1, §2, §3
NCCC[C@H](N)CNC(=O)c1nc2cc(-c3ccc(F)cc3)c(-c3ccc(F)cc3)cc2[nH]1 [Example 1, (S)—N-(2,5-diaminopentyl)-5,6-bis(4-fluorophenyl)-1H-benzo[d]imidazole-2-carboxamide Dihydrochloride] was tested, and the “Enhanced Activity in E. coli (fold enhancement of antibiotic activity / EPI concentration)” value was 512×/6.25.
With CC(C)C(N)CC[C@H](N)CNC(=O)c1nc2cc(-c3ccc(F)cc3)ccc2[nH]1 (stereo partly drawn) [Example 16, N-((2S)-2,5-diamino-6-methylheptyl)-5-(4-fluorophenyl)-1H-benzo[d]imidazole-2-carboxamide Dihydrochloride] the “Enhanced Activity in E. coli (fold enhancement of antibiotic activity / EPI concentration)” value was 4×/6.25.
For NCCC[C@@H](N)CNC(=O)c1nc2cc(-c3ccc(F)cc3)ccc2[nH]1 [Example 18, (R)—N-(2,5-diaminopentyl)-5-(4-fluorophenyl)-1H-benzo[d]imidazole-2-carboxamide Dihydrochloride], the “Enhanced Activity in E. coli (fold enhancement of antibiotic activity / EPI concentration)” value was 2×/6.25.
In the case of Cl.Cl.Cn1c(C(=O)NC[C@@H](N)CCCN)nc2cc(-c3ccc(F)cc3)c(-c3ccc(F)cc3)cc21 [Example 30, (S)—N-(2,5-diaminopentyl)-5,6-bis(4-fluorophenyl)-1-methyl-1H-benzo[d]imidazole-2-carboxamidehydrogen Chloride Salt], the “Enhanced Activity in E. coli (fold enhancement of antibiotic activity / EPI concentration)” value is reported as 512×/6.25 μg.
In the case of Cl.Cl.NCCC[C@H](N)CNC(=O)c1nc2cc(-c3ccc(F)cc3)c(-c3ccc(F)cc3)cc2n1Cc1ccccc1 [Example 31, (S)-1-benzyl-N-(2,5-diaminopentyl)-5,6-bis(4-fluorophenyl)-1H-benzo[d]imidazole-2-carboxamide Hydrogen Chloride Salt], the “Enhanced Activity in E. coli (fold enhancement of antibiotic activity / EPI concentration)” value is reported as 8×/6.25 μg.

Same assay, conditions: clarithromycin as antibiotic; E. coli ATCC 25922; EPI at 50 (μg)
In the case of Cn1c(C(=O)NC[C@@H](N)CCCN)nc2cc(-c3ccc(F)cc3)ccc21 [Example 5, (S)—N-(2,5-diaminopentyl)-5-(4-fluorophenyl)-1-methyl-1H-benzo[d]imidazole-2-carboxamide Dihydrochloride], the “Enhanced Activity in E. coli (fold enhancement of antibiotic activity / EPI concentration)” value is reported as 64×/50.
NCCC[C@H](N)CNC(=O)Cc1nc2ccc(-c3ccc(F)cc3)cc2[nH]1 [Example 10, (S)—N-(2,5-diaminopentyl)-2-(6-(4-fluorophenyl)-1H-benzo[d]imidazol-2-yl)acetamide Dihydrochloride] was tested, and the “Enhanced Activity in E. coli (fold enhancement of antibiotic activity / EPI concentration)” value was 1×/50.
With NCCC[C@H](N)CNC(=O)c1nc2cc(-c3ccc(F)cc3)ccc2[nH]1 [Example 17, (S)—N-(2,5-diaminopentyl)-5-(4-fluorophenyl)-1H-benzo[d]imidazole-2-carboxamide Dihydrochloride] the “Enhanced Activity in E. coli (fold enhancement of antibiotic activity / EPI concentration)” value was 256×/50.
NCCC[C@H](N)CNC(=O)c1nc2cc(Br)ccc2[nH]1 [Example 23, (S)-5-bromo-N-(2,5-diaminopentyl)-1H-benzo[d]imidazole-2-carboxamide Hydrogen Chloride Salt] was tested, and the “Enhanced Activity in E. coli (fold enhancement of antibiotic activity / EPI concentration)” value was 2×/50 μg.
For Cl.Cl.NCCC[C@H](N)CNC(=O)c1nc2ccc(-c3ccc(N)cc3)cc2[nH]1 [Example 25, (S)-6-(4-aminophenyl)-N-(2,5-diaminopentyl)-1H-benzo[d]imidazole-2-carboxamide Hydrogen Chloride Salt], the “Enhanced Activity in E. coli (fold enhancement of antibiotic activity / EPI concentration)” value was 2×/50 μg.
